Values of other authors as cited in US10285958B2, “Genotype- or phenotype-based drug formulation” (BAYER AKTIENGESELLSCHAFT, priority 2012, dated 2019).
Read-outs that look alike come from different tables or passages of the source. One block for each compound: values may come before it.

Key:
[1] = biological target: polymorphic cytochrome P450 (CYP) 2D6 (Homo sapiens, UniProt P10635); details: humans
Sequence of polymorphic cytochrome P450 (CYP) 2D6 (P10635 whole entry): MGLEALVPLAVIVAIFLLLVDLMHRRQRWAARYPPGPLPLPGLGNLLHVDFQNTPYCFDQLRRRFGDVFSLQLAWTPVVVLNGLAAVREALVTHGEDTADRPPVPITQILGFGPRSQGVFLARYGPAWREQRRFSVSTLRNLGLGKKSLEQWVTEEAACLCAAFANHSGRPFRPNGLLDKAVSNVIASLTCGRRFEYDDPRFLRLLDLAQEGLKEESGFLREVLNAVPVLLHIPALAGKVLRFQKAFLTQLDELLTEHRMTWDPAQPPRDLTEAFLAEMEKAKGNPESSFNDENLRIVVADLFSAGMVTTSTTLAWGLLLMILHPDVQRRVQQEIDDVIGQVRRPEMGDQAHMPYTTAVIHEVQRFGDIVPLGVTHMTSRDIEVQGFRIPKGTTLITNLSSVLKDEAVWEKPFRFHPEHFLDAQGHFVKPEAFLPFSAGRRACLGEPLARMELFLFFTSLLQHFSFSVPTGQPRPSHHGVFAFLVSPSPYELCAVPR

formation of endoxifen from N-desmethyltamoxifen via CYP2D6 [1]: exclusively
Structure (SMILES): CC/C(=C(\c1ccccc1)c1ccc(OCCNC)cc1)c1ccccc1 [N-desmethyltamoxifen]

time until steady-state concentration of endoxifen is achieved (standard dosage 20 mg of tamoxifen, European patients of CYP2D6 EM genotype or phenotype): about 80 days
Structure (SMILES): CC/C(=C(\c1ccccc1)c1ccc(OCCN(C)C)cc1)c1ccccc1 [tamoxifen]
endoxifen concentrations after increased tamoxifen dose (up to 40 mg of tamoxifen per day as two individual doses, CYP2D6 IMs and PMs, versus EMs on 20 mg): did not lead to the endoxifen concentrations observed in CYP2D6 EMs

endoxifen concentration in blood under tamoxifen therapy (CYP2D6 IM, versus EM or UM phenotype): distinctly below | endoxifen concentration in blood under tamoxifen therapy (CYP2D6 PM): very low
Structure (SMILES): CC/C(=C(\c1ccc(O)cc1)c1ccc(OCCNC)cc1)c1ccccc1 [endoxifen]
